The target of one test is T1, AChE (Electrophorus electricus, UniProt O42275).
T1 construct: obtaining AChE and BChE enzymes from electric eel and equine serum, respectively; from tissue; host or cells: electric eel
The experiment in a line: biochemical. The settings on record: for inhibition at 62.5 µg/mL / inhibition at 125 µg/mL / inhibition at 250 µg/mL / inhibition at 500 µg/mL / inhibition at 1000 µg/mL: read-out: AChE percent enzyme inhibition, Mean ± SEM. Here is the method:
(§1) Evaluation of anticholinesterase activity of the synthesized compounds was performed according to Ellman’s method and was determined by obtaining AChE and BChE enzymes from electric eel and equine serum, respectively. DMSO was used for the dissolution of test samples (1 mg/mL), which were diluted in phosphate buffer (0.1 M) to concentrations from 1000 to 62.5 µg/mL. Phosphate buffer in 0.1 M, pH 8.0 was used for the dilution of 518 U/mg AChE and 7–16 U/mg BChE to obtain final concentrations of 0.03 U/mL and 0.01 U/mL for AChE and BChE, respectively. Substrate solutions of 0.5 mM ATchI, 0.2273 mM DTNB and 0.5 mM BTchI in distilled water were made and maintained separately in Eppendorf tubes at 8 °C in a refrigerator. The assay was started by adding 5 µL enzyme solution to a cuvette, then adding 205 µL test sample followed by 5 µL DTNB reagent. A 5 µL volume of substrate solution was added, and the solution mixture was maintained for 15 min in water bath at 30 °C. A spectrophotometer was used to measure absorbance at 412 nm at 30 °C with a reaction time of 4 min. […] The following formula was used for calculation of % enzyme inhibition.

The next test has as its target T2, BChE (Equus caballus, UniProt P81908).
T2 construct: obtaining AChE and BChE enzymes from electric eel and equine serum, respectively; from tissue; host or cells: equine serum
Put plainly: biochemical. The settings on record: for inhibition at 62.5 µg/mL / inhibition at 125 µg/mL / inhibition at 250 µg/mL / inhibition at 500 µg/mL / inhibition at 1000 µg/mL: read-out: BChE percent enzyme inhibition, Mean ± SEM. On the procedure:
as §1

Test [1] deals with scopolamine-induced amnesia in mice. The experiment in a line: Elevated plus maze (EPM), scopolamine-induced amnesia. Type of test: in vivo, Balb/C mice. To be noted: then scopolamine 1 mg/kg i.p., mean ± SEM, n = 6. On the procedure:
(§2) Balb/C mice iwth a weight of (17–23 gm) were procured from the NIH (National Institute of Health), Islamabad, which were kept for breeding under favorable conditions in the animal house of the Pharmacy Department, Shaheed Benazir Bhutto University Sheringal Dir (Upper). Light/dark cycle of about 12 h each was maintained, with relative humidity of 50–55% at 22–25 °C. This work was conducted with approval from the Departmental Ethical Committee (SBBU/IEC-20-02) of the Scientific Procedure Issue-I of the University of Malakand in compliance with provision of the 2008 Animal Byelaws.
(§3) Mice were divided into thirteen groups with 6 mice in each group.
(§4) Group I. Normal control group (vehicle treated) received 10 mL/kg (i.p.) normal saline.
(§5) Group IV–XIII. Sample (curcumin analog)-treated groups. Synthesized curcumin analogs were administered in doses of 7.5 mg/kg and 15 mg/kg (p.o.), respectively.
(§6) The groups were kept for 7 days at various treatments doses.
The EPM consisted of two open arms and two closed arms with dimensions of 16 cm × 5 cm × 12 cm, and was made from two poly acrylic sheets and designed as a plus sign with a central platform with dimensions of 5 cm × 5 cm, which was elevated 25 cm from the floor on a wooden stand. Mice were placed in the open arm in such a position that their direction was facing away from the central platform; then, the transfer latency time (TLT) was noted when the mice moved to the closed arm with its four legs from the open arm and then returned to their home cage. […] The following formula was used for calculation of inflexion ratio (IR). IR=L0−L1/L0 where L1 = initial transfer latency (s) and L0 = retention transfer latency (s).

Test [2] concerns scopolamine-induced memory impairment in mice. The experiment in a line: Novel object recognition test (NORT), scopolamine-induced memory impairment. Type of test: in vivo, Balb/C mice. The settings on record: for % DI in exploring the novel object versus scopolamine-treated group (in words): long-term memory, h compounds 7.5 and 15 mg/kg, donepezil 2 mg/kg; for % DI versus scopolamine-treated group (in words): short-term memory, 7.5 and 15 mg/kg p.o. On the procedure: as §2, §3, §4, §5, §6
The synthesized curcumin analogs were tested for possible memory enhancement potential by using novel object recognition test apparatus, which was designed using plexi glass with dimension of 40 cm × 40 cm × 30 cm. The mice, after acclimatization period, were allowed to move for 2–3 min one day before the test for habituation. In the two corners of the NORT apparatus, two identical objects were placed on the test day in the sample phase (T1), and the object exploration time was recorded. The objects were regarded as being explored when the mice touched the objects or directed their nose toward the object at a distance of less than 2 cm, […], the test phase (T2) was started, in which one of the familiar objects was replaced with a novel (new) object. Mice again freely explored the objects in similar manner to that in T1, and the exploration time for the novel (new) object and the familiar (F) object were noted separately. The DI (discrimination index) was measured using the following formula: DI=N−F/N+F

The test system of test [3] is T3, AChE in the hippocampus region of mouse brain.
T3 construct: from tissue; host or cells: mouse brain hippocampus (supernatant of homogenate)
The class given is in vivo. The settings on record: pretreatment, then scopolamine, n = 6. Here is the method: as §6
(§7) The mice were sacrificed immediately after the behavioral study by cervical dislocation to provide quick and painless death to each animal before decapitation. Brain of each animal was excised in phosphate buffer saline (chilled) and incorporated into biochemical biomarker analysis.
(§8) Cholinesterase (AChE and BChE) levels were determined in the excised brain hippocampus using Ellman’s method with slight modification. Supernatant (0.4 mL), 0.1 M/L, pH 8 phosphate buffer (2.6 mL), and 100 µL of DTNB (5,5′-dithiobis-2-nitrobenzoic acid) and were added into cuvette and mixed. Spectrophotometer at 412 nm was run and absorbance was measured several times, then […] acetyl thiocholine iodide/butyrylthiocholine chloride was mixed into the reaction as substrate at an interval of 2 min, and variation in absorbance was noted and the changes in absorbance per min were recorded. The following formula was used for calculation of cholinesterase level: R = 5.74 × 10^−4 × A/CO where ‘R’ is the moles (rate) of substrate hydrolyzed/min/mg of protein, (A) is the change in absorbance/min, and ‘CO’ is concentration (20 mg/mL) of protein.

In test [4] the test system is T4, BChE in the hippocampus region of mouse brain.
T4 construct: from tissue; host or cells: mouse brain hippocampus (supernatant of homogenate)
Type of test: in vivo. The settings on record: pretreatment, then scopolamine, n = 6. Here is the method:
as §6, §7, §8

Results on two molecules are retold here after article PMC8659060, “Neuroprotective Potential of Synthetic Mono-Carbonyl Curcumin Analogs Assessed by Molecular Docking Studies” (Molecules, 2021).

What is called inhibition is the share of the control response that was lost under treatment. In general, IC50 refers to the point on the concentration scale where inhibition reaches its midpoint.

Read-outs that look alike come from different tables or passages of the source.

T2 sequence (P81908 whole entry): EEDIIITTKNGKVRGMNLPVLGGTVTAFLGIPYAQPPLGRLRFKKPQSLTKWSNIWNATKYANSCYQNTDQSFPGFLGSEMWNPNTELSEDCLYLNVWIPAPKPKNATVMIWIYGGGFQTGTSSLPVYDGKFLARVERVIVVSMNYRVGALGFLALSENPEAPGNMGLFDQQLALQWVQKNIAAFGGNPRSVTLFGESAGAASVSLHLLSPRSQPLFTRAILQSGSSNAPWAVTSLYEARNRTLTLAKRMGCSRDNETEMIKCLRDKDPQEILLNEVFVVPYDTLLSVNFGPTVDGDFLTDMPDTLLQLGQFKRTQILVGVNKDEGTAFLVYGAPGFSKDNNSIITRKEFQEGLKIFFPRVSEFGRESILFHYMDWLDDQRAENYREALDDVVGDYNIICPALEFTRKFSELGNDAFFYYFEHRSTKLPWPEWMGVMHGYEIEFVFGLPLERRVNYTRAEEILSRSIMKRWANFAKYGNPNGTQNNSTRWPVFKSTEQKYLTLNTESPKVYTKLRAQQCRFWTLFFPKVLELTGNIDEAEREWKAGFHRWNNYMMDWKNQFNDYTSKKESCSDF
T1 sequence (O42275 24-633): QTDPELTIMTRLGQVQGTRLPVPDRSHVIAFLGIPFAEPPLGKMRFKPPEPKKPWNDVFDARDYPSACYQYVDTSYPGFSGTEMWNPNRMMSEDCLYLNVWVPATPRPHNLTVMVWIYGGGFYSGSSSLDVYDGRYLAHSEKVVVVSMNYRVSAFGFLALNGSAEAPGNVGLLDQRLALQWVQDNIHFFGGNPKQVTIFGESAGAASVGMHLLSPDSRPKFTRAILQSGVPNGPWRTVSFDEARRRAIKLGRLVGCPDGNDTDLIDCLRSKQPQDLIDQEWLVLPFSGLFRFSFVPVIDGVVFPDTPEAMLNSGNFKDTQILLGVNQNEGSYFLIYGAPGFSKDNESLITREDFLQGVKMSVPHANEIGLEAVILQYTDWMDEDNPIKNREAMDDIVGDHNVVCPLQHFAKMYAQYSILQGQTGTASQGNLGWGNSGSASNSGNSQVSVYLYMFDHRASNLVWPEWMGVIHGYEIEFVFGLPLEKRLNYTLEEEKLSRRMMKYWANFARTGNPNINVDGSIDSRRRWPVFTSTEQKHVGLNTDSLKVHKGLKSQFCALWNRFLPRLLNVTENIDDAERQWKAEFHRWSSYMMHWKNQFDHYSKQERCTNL

Take `CN(C)c1ccc(/C=C/C(=O)/C=C/c2ccc(N(C)C)cc2)cc1` [h4, (1E,4E)-1,5-bis(4-(Dimethylamino)phenyl)penta-1,4-dien-3-one]: the results for the inhibition at 62.5 µg/mL at AChE (62.5 µg/mL) and on BChE (62.5 µg/mL) were 31.41 ± 0.13% and 27.16 ± 0.11%, respectively. Further, the results for the inhibition at 125 µg/mL at AChE (125 µg/mL) and on BChE (125 µg/mL) were 39.45 ± 0.04% and 35.33 ± 0.19%, respectively. Further, the results for the inhibition at 250 µg/mL on AChE (250 µg/mL) and at BChE (250 µg/mL) were 46.32 ± 0.15% and 42.62 ± 0.12%, respectively. In addition, the inhibition at 500 µg/mL amounted to 58.16 ± 0.11% on AChE (500 µg/mL) and 49.51 ± 0.16% on BChE (500 µg/mL). Also, the inhibition at 1000 µg/mL on AChE (1000 µg/mL) came out at 63.51 ± 0.17%; on BChE (1000 µg/mL), 56.32 ± 0.18%. The half-maximal inhibitory concentration (IC50) is 920 µM at AChE (Ellman's method, 1000 to 62.5 μg/mL, n = 3, read-out: AChEI (IC50) (converted)) and 1600 µM at BChE (Ellman's method, 1000 to 62.5 μg/mL, n = 3, read-out: BChEI (IC50) (converted)). Also, the “Retention (transfer latency time, TLT)” value in test [1] (7.5 mg/kg p.o. for 7 days) came to 35.71 ± 1.13 s; in test [1] (15 mg/kg p.o. for 7 days) it was 30.42 ± 1.24 s. Further, the “% DI in exploring the novel object versus scopolamine-treated group (in words)” value in test [2] was “no promising results”. Further, in test [2], the “% DI versus scopolamine-treated group (in words)” value is on record as “comparable values”. The “Reversal of scopolamine-increased hippocampus AChE level (in words)” value in test [3] was “no prominent”. The “Reversal of scopolamine-increased hippocampus BChE level (in words)” value in test [4] is “no promising results”.

Consider `O=C(/C=C/c1ccc([N+](=O)[O-])cc1)/C=C/c1ccc([N+](=O)[O-])cc1` [h5, (1E,4E)-1,5-bis(4-Nitrophenyl)penta-1,4-dien-3-one], for which, at AChE, the IC50 is 1950 µM, the inhibition at 62.5 µg/mL was 26.45 ± 0.18%, the inhibition at 125 µg/mL was 35.51 ± 0.06% and the inhibition at 250 µg/mL is 41.27 ± 0.04%. Further, at AChE, the inhibition at 500 µg/mL worked out at 47.33 ± 0.16% and the inhibition at 1000 µg/mL worked out at 58.41 ± 0.13%. Also, on BChE, 3050 µM corresponded to half-maximal inhibition (IC50), the inhibition at 62.5 µg/mL is 16.2 ± 0.83%, the inhibition at 125 µg/mL worked out at 20.3 ± 0.31% and the inhibition at 250 µg/mL amounted to 32.73 ± 0.01%. Further, at BChE, the inhibition at 500 µg/mL was found to be 43.51 ± 0.13% and the inhibition at 1000 µg/mL stood at 51.82 ± 0.16%. In addition, the “Retention (transfer latency time, TLT)” value in test [1] (7.5 mg/kg p.o. for 7 days) is 34.71 ± 1.37 s. Besides, the “Retention (transfer latency time, TLT)” value in test [1] (15 mg/kg p.o. for 7 days) came out at 31.51 ± 1.54 s. Besides, in test [2], the “% DI in exploring the novel object versus scopolamine-treated group (in words)” value was “no promising results” and the “% DI versus scopolamine-treated group (in words)” value is reported as “no promising results”. Besides, the “Reversal of scopolamine-increased hippocampus AChE level (in words)” value in test [3] is “no prominent”. Moreover, the “Reversal of scopolamine-increased hippocampus BChE level (in words)” value in test [4] is listed as “no promising results”.
